Experimental data: US6307014A (priority 1998, dated 2001)

System: cholinergic synapse of the buccal ganglion
Assay type: cell-based, Aplysia californica

Substance: Gla Cys Cys Gla Asp Gly BrW Cys Cys Thr Ala Ala OHP [P11.1]
- reversibility of the IPSC decrease: reversed by washing
